In brackets after ≈: the same amount, converted by molar mass. Where a SMILES comes first, the peptide text is derived from it.
Key:
[1] = test system: B. subtilis BR151; test: microbe, parasite or virus in culture; format: cell-based, Bacillus subtilis; conditions: for MIC B. subtilis BR151: Table 3, unit not given (Table 1: μg/mL), median of at least three experiments
Method: (§1) Minimal Inhibitory Concentration (MIC): Stock solutions of polymers (5.00 μL at 2 mg/mL, prepared as described above), commercial synthetic (Ala^8,3,18)-1-magainin-2-amide (Sigma, dissolved in Millipore water to 1 mg/mL, 10.0 μL, as positive control), or solvent blank (5.00 μL) were diluted into brain-heart infusion (BHI) broth in row A of 96-well sterile assay plates (B-D Falcon 35-3075, Fisher Scientific) and seven serial twofold dilutions were performed to give 50 μL of peptide solution (at double the final assay concentration) in each well. Bacterial strains (Escherichia coli JM1O9, Bacillus subtilis BR151,^24 Staphylococcus aureus 5332 (a clinical MRSA isolate from the Weisblum laboratory strain collection), and Enterococcus faecium A436^25) were grown on 2% bacteriological agar in BHI medium. Cells from these cultures were suspended in BHI broth at a concentration of approximately 10^6 colony-forming units (CFU)/mL, and 50 μL of cell suspension was added to each well to give a total of 100 μL in each well.
(§2) Plates were then incubated at 37° C. for 6 h. Bacterial growth gives rise to turbidity and light scattering, which was detected by measuring 0D650 using a Molecular Devices Emax microplate reader connected to a Windows computer running SOFTmax v.2.34. OD650 values from two simultaneous experiments were averaged. […] If an even number of experiments was performed and the two median values were not identical, the geometric mean is reported as the MIC.

[2] = test system: S. aureus 5332 (clinical MRSA isolate); test: microbe, parasite or virus in culture; format: cell-based, Staphylococcus aureus; conditions: for MIC S. aureus 5332: Table 3, unit not given (Table 1: μg/mL), median of at least three experiments
Method: as §1, §2

[3] = test system: E. Coli, B. subtilis, methicillin-resistant S. aureus, vancomycin-resistant E. faecium; test: BHI growth inhibition assay, statements over all four strains; format: cell-based; conditions: BHI broth, up to 50 μg/mL
Method: as §1
Plates were then incubated at 37° C. for 6 h. Bacterial growth gives rise to turbidity and light scattering, which was detected by measuring 0D650 using a Molecular Devices Emax microplate reader connected to a Windows computer running SOFTmax v.2.34. OD650 values from two simultaneous experiments were averaged. […]

[4] = test system: E. coli JM109; test: microbe, parasite or virus in culture; format: cell-based, Escherichia coli; conditions: for MIC E. coli JM109: Table 3, unit not given (Table 1: μg/mL), median of at least three experiments
Method: as §1, §2

[5] = test system: E. faecium A436 (vancomycin-resistant); test: microbe, parasite or virus in culture; format: cell-based, Enterococcus faecium; conditions: for MIC E. faecium A436: Table 3, unit not given (Table 1: μg/mL), median of at least three experiments
Method: as §1, §2

[6] = test system: E. coli JM109; test: Minimal Bactericidal Concentration (MBC); format: cell-based, Escherichia coli; conditions: Table 2, unit not given; lowest well concentration showing no colonies (>99% killing); plates incubated 4 d
Method: Minimal Bactericidal Concentration (MBC): To determine cell viability, 10 μL from each of the MIC, 2×MIC, and 4×MIC wells (up to the maximum concentration of […]) was diluted 100-fold. Of this, 100 μL (containing at most 5×10^2 CFU) was plated on 2% bacteriological agar in BHI medium and incubated at 37° C. overnight (for B. subtilis) or for 4 d (for E. coli, because no growth was seen after 10 h; colonies appeared on some plates after extended incubation). The absence of colonies was considered indicative of >99% bacterial killing, and the lowest assay well concentration showing no colonies is reported as the MBC.

MIC ([1]; Bacillus subtilis, BR151, BHI broth, 37° C., 6 h, tested up to 50 μg/mL, conservative estimates, read-out: Minimum Inhibitory Concentrations (MIC's) B. subtilis BR151) [µg/mL]	MIC B. subtilis BR151 ([1]; BHI broth, 37° C., 6 h) [µg/mL]	MIC ([2]; Staphylococcus aureus, MRSA, BHI broth, 37° C., 6 h, tested up to 50 μg/mL, conservative estimates, read-out: Minimum Inhibitory Concentrations (MIC's) S. aureus 5332) [µg/mL]	MIC S. aureus 5332 ([2]; BHI broth, 37° C., 6 h) [µg/mL]	MIC ([4]; Escherichia coli, JM109, BHI broth, 37° C., 6 h, tested up to 50 μg/mL, conservative estimates, read-out: Minimum Inhibitory Concentrations (MIC's) E. coli JM109) [µg/mL]	MIC E. coli JM109 ([4]; BHI broth, 37° C., 6 h) [µg/mL]	MIC ([5]; Enterococcus faecium, BHI broth, 37° C., 6 h, tested up to 50 μg/mL, conservative estimates, read-out: Minimum Inhibitory Concentrations (MIC's) E. faecium A436) [µg/mL]	MIC E. faecium A436 ([5]; BHI broth, 37° C., 6 h) [µg/mL]	Minimum Inhibitory Concentrations (MIC's) B. subtilis BR151 ([1]; BR151, 6 h) [µg/mL]	Minimum Inhibitory Concentrations (MIC's) S. aureus 5332 ([2]; 5332 (clinical isolate, 6 h)) [µg/mL]	Minimum Inhibitory Concentrations (MIC's) E. coli JM109 ([4]; JM109, 6 h) [µg/mL]	Minimum Inhibitory Concentrations (MIC's) E. faecium A436 ([5]; A436 (vancomycin-resistant, 6 h)) [µg/mL]	SMILES	growth inhibition / inhibitory activity (in words) [3]	MBC E. coli JM109 [6]
> 50	> 50	> 50	> 50	> 50	> 50	> 50	> 50	–	–	–	–	C=Cc1ccc(CN(C)C)cc1 [(1) (monomer), 4-(dimethylaminomethyl)-styrene]	no growth inhibition	–
–	6.3 (≈ 2.54 µM)	–	12.5 (≈ 5.04 µM)	–	12.5 (≈ 5.04 µM)	–	3.2 (≈ 1.29 µM)	6.3	12.5	12.5	3.2	CC[C@H](C)[C@H](NC(=O)CN)C(=O)NCC(=O)N[C@@H](CCCCN)C(=O)N[C@@H](Cc1ccccc1)C(=O)N[C@@H](CC(C)C)C(=O)N[C@@H](Cc1c[nH]cn1)C(=O)N[C@@H](C)C(=O)N[C@@H](C)C(=O)N[C@@H](CCCCN)C(=O)N[C@@H](CCCCN)C(=O)N[C@@H](Cc1ccccc1)C(=O)N[C@@H](C)C(=O)N[C@@H](CCCCN)C(=O)N[C@@H](C)C(=O)N[C@@H](Cc1ccccc1)C(=O)N[C@H](C(=O)N[C@@H](C)C(=O)N[C@@H](CCC(=O)O)C(=O)N[C@H](C(=O)N[C@@H](CCSC)C(=O)N[C@@H](CC(N)=O)C(=O)N[C@@H](CO)C(N)=O)[C@@H](C)CC)C(C)C [(Ala^8,3,18)-magainin-2-amide] (H-GIGKFLHAAKKFAKAFVAEIMNS-NH2; N-terminus assumed)	–	25

Source: patent US9034309B2, “Biocidal polymers” (Wisconsin Alumni Research Foundation, priority 2003, dated 2015)
